Reference: US7759321B2, “Compounds for the treatment of pain” (Cambridge Biotechnology Ltd, priority 2003, dated 2010)

Legend:
adenosine receptors = adenosine receptors (Rattus norvegicus, UniProt P30543); assay: EC50 at adenosine receptors measured at pH 7.4; type: biochemical
From the text: For the avoidance of doubt, the EC50 value of a compound is defined herein as the concentration of the compound that provokes a receptor response halfway between the baseline receptor response and the maximum receptor response (as determined, for example, using a dose-response curve).
The EC50 value should be determined under standard conditions (balanced salt solutions buffered to pH 7.4). […] The EC50 could also be determined in vivo by measuring adenosine receptor mediated responses in a normal healthy animal, or even in a tissue perfused under normal conditions (i.e. oxygenated blood, or oxygenated isotonic media, also buffered at pH 7.4) in a normal healthy animal.

[1] = test system: carrageenan (CGN) induced thermal hyperalgesia; assay: Carrageenan induced thermal hyperalgesia (CITH); type: in vivo; conditions: 0.624 mg/kg p.o.
Procedure: Carrageenan (2%, 10 microlitres) was administered into the right hind paw. A heat source was placed close to the treated and untreated hind paws, and the difference in the paw withdrawal latencies is shown. Spongosine was administered at the same time as carrageenan.

[2] = test system: chronic constriction injury of the rat sciatic nerve; assay: Chronic constriction injury model of neuropathic pain, thermal hyperalgesia; type: in vivo; conditions: 0.624 mg/kg p.o.
From the text: After approximately two weeks the rats developed thermal hyperalgesia in the operated leg as judged by the difference in paw withdrawal latencies of the right and left paws.

normal rats = assay: Blood pressure and heart rate by implantable radiotelemetry; type: in vivo, rat; conditions: 0.624 mg/kg p.o.
From the text: An implantable radiotelemetry device was placed in the abdominal cavity of 6 rats per group. The pressure catheter of the device was inserted in the abdominal aorta and two electrodes tunnelised under the skin in a lead II position (left side of abdominal cavity/right shoulder). Individual rats were placed in their own cage on a radioreceptor (DSI) for data acquisition. A: blood pressure; B: heart rate.

[3] = Plasma concentration over time after administration; type: in vivo, rat
Procedure: It can be seen that the plasma concentration remains above 2% of the EC50 value for more than 3 hours.

[4] = test system: static allodynia in a model of neuropathic pain; assay: Static allodynia in a model of neuropathic pain (paw withdrawal threshold); type: in vivo
Procedure: Spongosine and gabapentin were administered (p.o.) in different proportions as indicated in the drawing. The total dose administered is shown on the horizontal axis, and the paw withdrawal threshold (PWT) on the vertical axis. The predicted anti-hyperalgesic effect (derived from the dose response curves obtained with each agent alone) if the effects of the two compounds are additive is shown (●). The observed effects are indicated by (▪).

[5] = test system: normal physiological nociception; assay: Normal physiological nociception after administration; type: in vivo
From the text: Compounds of formula (I) are believed to be effective in inhibiting pain perception in mammals suffering from pain, in particular neuropathic and inflammatory pain, even when administered at doses expected to give plasma concentrations well below those known to activate adenosine receptors. […] Therefore, compounds of formula (I) can treat pain (particularly neuropathic and inflammatory pain) without causing the significant side effects associated with administration of other adenosine receptor agonists, and also without reducing normal sensory perception.

rat A2A receptor = rat A2A receptor (Rattus norvegicus, UniProt P30543); conditions: read-out: EC50 for stimulation of the rat A2A receptor; cited from earlier work
rats = conditions: cited from earlier work

Sequence of adenosine receptors (P30543 whole entry): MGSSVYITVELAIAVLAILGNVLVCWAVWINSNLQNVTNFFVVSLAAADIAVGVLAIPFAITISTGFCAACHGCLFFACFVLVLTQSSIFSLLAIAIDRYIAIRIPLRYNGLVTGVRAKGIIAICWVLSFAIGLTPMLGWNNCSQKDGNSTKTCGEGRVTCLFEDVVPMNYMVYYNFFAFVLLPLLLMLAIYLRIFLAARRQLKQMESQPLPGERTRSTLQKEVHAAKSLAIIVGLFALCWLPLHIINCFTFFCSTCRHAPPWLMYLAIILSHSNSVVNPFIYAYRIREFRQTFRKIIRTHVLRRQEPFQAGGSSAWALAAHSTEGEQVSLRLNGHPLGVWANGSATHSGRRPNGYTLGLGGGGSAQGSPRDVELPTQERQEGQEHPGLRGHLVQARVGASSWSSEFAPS
Sequence of rat A2A receptor (P30543 whole entry): as above

| SMILES | EC50 (adenosine receptors) [nM] | Efficacy compared with indomethacin (3 mg/kg p.o.) in carrageenan induced thermal hyperalgesia [1] | Effect on carrageenan induced thermal hyperalgesia (difference in paw withdrawal latencies) ([1]; given at the same time as carrageenan (2%, 10 microlitres, right hind paw)) | Effect on thermal hyperalgesia caused by chronic constriction injury (difference in paw withdrawal latencies) [2] | Efficacy compared with carbamazepine (CBZ, 100 mg/kg s.c.) in chronic constriction injury model [2] | Effect on blood pressure (normal rats) | Effect on heart rate (normal rats) | Blood pressure effect if the peak plasma concentration reaches the EC50 value ([3]; last for hours) | Time plasma concentration remains above 2% of the EC50 value ([3]; rat, 0.6 mg/kg) | Effect on static allodynia (paw withdrawal threshold, PWT) ([4]; 1.2 mg/kg p.o., in the presence and absence of naloxone (1 mg/kg s.c.)) | Effect on static allodynia (paw withdrawal threshold, PWT) ([4]; p.o., Example 6) | Effect on normal physiological nociception [5] | EC50 (rat A2A receptor) [nM] | Biological activities in rats (rats) |
| --- | --- | --- | --- | --- | --- | --- | --- | --- | --- | --- | --- | --- | --- | --- |
| COc1nc(N)c2ncn([C@@H]3O[C@H](CO)[C@@H](O)[C@H]3O)c2n1 [Spongosine, 2-methoxyadenosine] | 3000 | as effective as indomethacin | inhibits carrageenan (CGN) induced thermal hyperalgesia | inhibits thermal hyperalgesia | as, or more, effective than carbamazepine | no significant effect | no significant effect | profound reductions in blood pressure | more than 3 hours | inhibits static allodynia | inhibit static allodynia | no effect | 3000 | muscle relaxant, hypothermic, hypotensive, and anti-inflammatory activity |
| NCC1(CC(=O)O)CCCCC1 [gabapentin, reference compound] | – | – | – | – | – | – | – | – | – | – | inhibit static allodynia | – | – | – |
